In PMC4620744 (Molecular cell, 2015):
pKd: −log10 of the molar value. Where no end group is shown, it is not given here.

Tests used:
H2A.Z-H2B = assay: EMSA of full-length FACT with H2A.Z-H2B; format: binding, Saccharomyces cerevisiae
H2A-H2B M62E [1] = assay: EMSA binding of full-length FACT to H2A-H2B M62E; design: species or system Saccharomyces cerevisiae; details: not shown
H2A-H2B M62E [2] = assay: ITC binding of full-length FACT to H2A-H2B M62E; design: species or system Saccharomyces cerevisiae
full-length H2A-H2B = full-length H2A-H2B (Saccharomyces cerevisiae, UniProt P02293+P04911); assay: ITC binding to full-length H2A-H2B
Chain of full-length H2A-H2B (P04911 2-132 limits assumed): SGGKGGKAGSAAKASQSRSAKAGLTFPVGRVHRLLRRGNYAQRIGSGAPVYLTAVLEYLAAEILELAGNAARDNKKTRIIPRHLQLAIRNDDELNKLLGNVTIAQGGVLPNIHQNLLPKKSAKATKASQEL
Chain of full-length H2A-H2B (P02293 2-131 limits assumed): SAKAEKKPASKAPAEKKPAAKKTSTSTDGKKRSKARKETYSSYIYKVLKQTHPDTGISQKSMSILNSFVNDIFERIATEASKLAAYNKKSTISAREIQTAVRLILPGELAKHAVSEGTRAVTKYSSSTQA

[3] = system: H2A-H2B^30-130 bearing H2B M62A; assay: ITC binding to H2A-H2B^30-130 bearing H2B M62A; design: species or system Saccharomyces cerevisiae
[4] = system: H2A-H2B^30-130 bearing H2B Y45A; assay: ITC binding to H2A-H2B^30-130 bearing H2B Y45A; design: species or system Saccharomyces cerevisiae
H2A R78A H2A-H2B^30-130 = assay: ITC binding to H2A-H2B^30-130 bearing H2A R78A; design: species or system Saccharomyces cerevisiae
H2A R78E H2A-H2B^30-130 = assay: ITC binding to H2A-H2B^30-130 bearing H2A R78E; design: species or system Saccharomyces cerevisiae
H2A-H2B^30-130 H2B M62E = assay: ITC binding to H2A-H2B^30-130 bearing H2B M62E; design: species or system Saccharomyces cerevisiae

## full-length FACT: full-length S. cerevisiae Spt16-Pob3 heterodimer
H2A.Z-H2B
  discrimination between H2A.Z-H2B and H2A-H2B by EMSA (in words): does not differentiate between H2A.Z-H2B and H2A-H2B
H2A-H2B M62E [1]
  binding of full-length FACT to H2A-H2B M62E by EMSA (in words): diminished binding
H2A-H2B M62E [2]
  binding of full-length FACT to H2A-H2B M62E by ITC (in words): severe reduction in the binding
full-length H2A-H2B; 25 °C, pH 7.4, 200 mM NaCl
  stoichiometry of binding to H2A-H2B: one full-length Spt16-Pob3 heterodimer bound two H2A-H2B dimers

## DESVDEDFQVSSDNDADEVAEEFDS [Pob3^505-529]
[3]
  reduction in binding (fold) with H2B M62A relative to wild-type histones: 9 fold
[4]
  reduction in binding (fold) with H2B Y45A relative to wild-type histones: 12 fold

## Pob3: Pob3 subunit of FACT
full-length H2A-H2B; read-out: dissociation constant (KD) for H2A-H2B, 25 °C, 25 mM Na-K phosphate pH 7.4, 200 mM NaCl, at least triplicate
  pKd: ~6.00

## Spt16-C^958-999: Spt16 residues 958-999 (DDEASDESEEEVSEYEASEDDVSDESAFSEDEEGSEVDDDIS)
full-length H2A-H2B; 25 °C, pH 7.4, 200 mM NaCl
  binding to H2A-H2B (in words): recapitulates the full H2A-H2B binding activity of Spt16

## Spt16^958-990: Spt16 peptide of residues 958-990 used for crystal structure and histone mutant binding (DDEASDESEEEVSEYEASEDDVSDESAFSEDEE)
H2A R78A H2A-H2B^30-130
  binding to H2A R78A histone mutant (in words): little effect on binding
H2A R78E H2A-H2B^30-130
  binding to H2A R78E histone mutant (in words): affinity was completely lost
H2A-H2B^30-130 H2B M62E
  binding to H2B M62E histone mutant (in words): reduced binding to undetectable levels
